US20140350273A1, “PEDIATRIC USES OF CABAZITAXEL” (AVENTIS PHARMA S.A., priority 2012, published 2014)
Like-named read-outs stand apart in the source and are kept apart here.

Test system: human osteosarcoma DM77
Type: in vivo
Conditions: for Tumor Volume Data (Day 21) Median / ΔT/ΔC % / ΔT/ΔC: day 21; for MTTE / T-C: volume endpoint 1400 mm^3
Protocol: In the reported examples supporting this invention, vials of the clinical formulation of cabazitaxel and docetaxel were used. […] The resultant solution contains 10 mg/mL of cabazitaxel. Stock solution of cabazitaxel was then diluted in 0.9% sodium chloride.
This efficacy may be quantified, for example, as changes in tumor volume for each treated (T) and control (C) group, which are calculated for each animal and each day by subtracting the tumor volume on the day of first treatment (staging day) from the tumor volume on the specified observation day. This allows calculating the tumor growth inhibition: ΔT/ΔC=(median delta T/median delta C)×100. Individual tumor volume changes from baseline are thereafter analyzed by a non-parametric two-way ANOVA-TYPE (with factors: group and repeated days) followed by a post-hoc contrasts analysis, with Bonferroni-Holm adjustment for multiplicity, comparing all treated groups to the control group. […] A probability less than 5% (p<0.05) was considered as significant.
Based on the National Cancer Institute (NCl) standards, a ΔT/ΔC≦40% is the minimal level required to declare activity.
This efficacy may also be quantified by the number of tumor regressions observed after therapy. Individual mice reporting a tumor volume ≦50% of the Day 0 measurement for two consecutive measurements over a seven day period were considered partial responders (PR). Individual mice lacking palpable tumors (<4×4 mm^2 for two consecutive measurements over a seven day period) were classified as complete responders (CR); a CR that persisted until study completion was considered a tumor-free survivor (TFS).
Efficacy could also be determined at study completion, using tumor growth delay (T-C) in days, which is calculated using the median time to endpoint (MTTE) value for each treatment (T) group versus control (C). A Log Rank multiple comparison test with Bonferroni-Holm adjustment for multiplicity was applied on individual TTE to compare the treated groups to the control group.
The efficacy of cabazitaxel in comparison with docetaxel on pediatric patient-derived tumor xenografts was determined experimentally in the following manner:
The animals subjected to the experiment are subcutaneously grafted unilaterally with approximately 30 mg of a tumor fragment from low passage pediatric patient-derived tumor xenografts. The animals are implanted with a human patient-derived pediatric tumor xenografted in immuno-compromised mice (Harlan; nu/nu). Several days post tumor implantation, mice are randomized according to their tumor burden to the different groups of treatments and controls. The agents are dosed intravenously at 5.8, 9.3, 15 or 24.2 mg/kg every 4 days for a total of 3 doses (q4d×3) to mice bearing a tumor burden at start of therapy (day 0) ranged from 125 to 250 mm^3.
Beginning Day 0, animals were observed daily and weighed twice weekly using a digital scale; data including individual and mean gram weights (Mean We±SD), mean percent weight change versus Day 0 were recorded for each group. Animal deaths were recorded daily and designated as drug-related (D), technical (T), tumor related (B), or unknown (U) based on weight loss and gross observation; single agent or combination groups reporting a mean >20% for a period of 7 days and/or >10% mortality were considered above the maximum tolerated dose (MTD) for that treatment on the evaluated regimen.
The selected tumor model, DM77, was a low passage patient-derived tumor xenograft derived from an osteosarcoma taken from the lung of a patient. […]

CO[C@H]1C(=O)[C@]2(C)[C@@H](OC)C[C@H]3OC[C@@]3(OC(C)=O)[C@H]2[C@H](OC(=O)c2ccccc2)[C@]2(O)C[C@H](OC(=O)[C@H](O)[C@@H](NC(=O)OC(C)(C)C)c3ccccc3)C(C)=C1C2(C)C [Cabazitaxel, 4α-acetoxy-2α-benzoyloxy-5β,20-epoxy-1β-hydroxy-7β,10β-dimethoxy-9-oxo-11-taxen-13α-yl (2R,3S)-3-tert-butoxycarbonyl-amino-2-hydroxy-3-phenylpropionate]
#CR (5.8 mg/kg i.v./q4dx3): 0/0/0 | #PR (5.8 mg/kg i.v./q4dx3): 0/0/0 | #TFS (5.8 mg/kg i.v./q4dx3): 0/0/0 | Drug Deaths Total (5.8 mg/kg i.v./q4dx3): 0 | Weight Change at Nadir % (5.8 mg/kg i.v./q4dx3): −5% | Weight Change at Nadir Day (5.8 mg/kg i.v./q4dx3): 11 days | Tumor Volume Data (Day 21) Median (5.8 mg/kg i.v./q4dx3): 333 mm^3 | ΔT/ΔC % (5.8 mg/kg i.v./q4dx3): 14.1% | MTTE (5.8 mg/kg i.v./q4dx3): 49 days | T-C (5.8 mg/kg i.v./q4dx3): 24 days | ΔT/ΔC (5.8 mg/kg q4d×3 IV): 14.1% | tumor volume changes from baseline, Median +/− nMAD (5.8 mg/kg, DAY 4): 47 +/− 47 | tumor volume changes from baseline, Median +/− nMAD (5.8 mg/kg, DAY 7): 121 +/− 80 | tumor volume changes from baseline, Median +/− nMAD (5.8 mg/kg, DAY 11): 162 +/− 89 | tumor volume changes from baseline, Median +/− nMAD (5.8 mg/kg, DAY 14): 162 +/− 97 | tumor volume changes from baseline, Median +/− nMAD (5.8 mg/kg, DAY 18): 195 +/− 122 | tumor volume changes from baseline, Median +/− nMAD (5.8 mg/kg, DAY 21): 129 +/− 129 | tumor volume changes from baseline, Median +/− nMAD (5.8 mg/kg, DAY 25): 96 +/− 115 | tumor volume changes from baseline, Median +/− nMAD (5.8 mg/kg, DAY 28): 96 +/− 115 | tumor volume changes from baseline, Median +/− nMAD (5.8 mg/kg, DAY 32): 96 +/− 109 | tumor volume changes from baseline, Median +/− nMAD (5.8 mg/kg, DAY 35): 169 +/− 182 | tumor volume changes from baseline, Median +/− nMAD (5.8 mg/kg, DAY 39): 239 +/− 172.5 | tumor volume changes from baseline, Median +/− nMAD (5.8 mg/kg, DAY 42): 240 +/− 162 | tumor volume changes from baseline, Median +/− nMAD (5.8 mg/kg, DAY 46): 364.5 +/− 226 | tumor volume changes from baseline, Median +/− nMAD (5.8 mg/kg, DAY 49): 402 +/− 254 | tumor volume changes from baseline, Median +/− nMAD (5.8 mg/kg, DAY 53): 706 +/− 516 | tumor volume changes from baseline, Median +/− nMAD (5.8 mg/kg, DAY 56): 878 +/− 602.5 | #CR (9.3 mg/kg i.v./q4dx3): 0 | #PR (9.3 mg/kg i.v./q4dx3): 2 | #TFS (9.3 mg/kg i.v./q4dx3): 0 | Drug Deaths Total (9.3 mg/kg i.v./q4dx3): 0 | Weight Change at Nadir % (9.3 mg/kg i.v./q4dx3): −8% | Weight Change at Nadir Day (9.3 mg/kg i.v./q4dx3): 11 days | Tumor Volume Data (Day 21) Median (9.3 mg/kg i.v./q4dx3): 131 mm^3 | ΔT/ΔC % (9.3 mg/kg i.v./q4dx3): 0% | MTTE (9.3 mg/kg i.v./q4dx3): >60 days | T-C (9.3 mg/kg i.v./q4dx3): >35 days | numbers of PR (9.3 mg/kg q4d×3 IV): 2/9 | ΔT/ΔC (9.3 mg/kg q4d×3 IV): 0% | tumor volume changes from baseline, Median +/− nMAD (9.3 mg/kg, DAY 4): 54 +/− 54 | tumor volume changes from baseline, Median +/− nMAD (9.3 mg/kg, DAY 7): 73 +/− 73 | tumor volume changes from baseline, Median +/− nMAD (9.3 mg/kg, DAY 11): 19 +/− 35 | tumor volume changes from baseline, Median +/− nMAD (9.3 mg/kg, DAY 14): 19 +/− 35 | tumor volume changes from baseline, Median +/− nMAD (9.3 mg/kg, DAY 18): 0 +/− 33 | tumor volume changes from baseline, Median +/− nMAD (9.3 mg/kg, DAY 21): 0 +/− 34 | tumor volume changes from baseline, Median +/− nMAD (9.3 mg/kg, DAY 25): −19 +/− 26 | tumor volume changes from baseline, Median +/− nMAD (9.3 mg/kg, DAY 28): −45 +/− 26 | tumor volume changes from baseline, Median +/− nMAD (9.3 mg/kg, DAY 32): −45 +/− 26 | tumor volume changes from baseline, Median +/− nMAD (9.3 mg/kg, DAY 35): −66 +/− 7 | tumor volume changes from baseline, Median +/− nMAD (9.3 mg/kg, DAY 39): −66 +/− 7 | tumor volume changes from baseline, Median +/− nMAD (9.3 mg/kg, DAY 42): −66 +/− 7 | tumor volume changes from baseline, Median +/− nMAD (9.3 mg/kg, DAY 46): −66 +/− 7 | tumor volume changes from baseline, Median +/− nMAD (9.3 mg/kg, DAY 49): −66 +/− 7 | tumor volume changes from baseline, Median +/− nMAD (9.3 mg/kg, DAY 53): −47 +/− 25 | tumor volume changes from baseline, Median +/− nMAD (9.3 mg/kg, DAY 56): −47 +/− 26 | #CR (15 mg/kg i.v./q4dx3): 0 | #PR (15 mg/kg i.v./q4dx3): 6 | #TFS (15 mg/kg i.v./q4dx3): 0 | Drug Deaths Total (15 mg/kg i.v./q4dx3): 0 | Weight Change at Nadir % (15 mg/kg i.v./q4dx3): −9% | Weight Change at Nadir Day (15 mg/kg i.v./q4dx3): 11 days | Tumor Volume Data (Day 21) Median (15 mg/kg i.v./q4dx3): 78 mm^3 | ΔT/ΔC % (15 mg/kg i.v./q4dx3): −9.3% | MTTE (15 mg/kg i.v./q4dx3): >60 days | T-C (15 mg/kg i.v./q4dx3): >35 days | tumor volume changes from baseline, Median +/− nMAD (15 mg/kg, DAY 4): 0 +/− 0 (n = 9) | tumor volume changes from baseline, Median +/− nMAD (15 mg/kg, DAY 7): 0 +/− 25 | tumor volume changes from baseline, Median +/− nMAD (15 mg/kg, DAY 11): −53 +/− 19 | tumor volume changes from baseline, Median +/− nMAD (15 mg/kg, DAY 14): −53 +/− 27 | tumor volume changes from baseline, Median +/− nMAD (15 mg/kg, DAY 18): −73 +/− 20 | tumor volume changes from baseline, Median +/− nMAD (15 mg/kg, DAY 21): −85 +/− 13 | tumor volume changes from baseline, Median +/− nMAD (15 mg/kg, DAY 25): −85 +/− 13 | tumor volume changes from baseline, Median +/− nMAD (15 mg/kg, DAY 28): −85 +/− 13 | tumor volume changes from baseline, Median +/− nMAD (15 mg/kg, DAY 32): −85 +/− 19 | tumor volume changes from baseline, Median +/− nMAD (15 mg/kg, DAY 35): −85 +/− 19 | tumor volume changes from baseline, Median +/− nMAD (15 mg/kg, DAY 39): −85 +/− 38 | tumor volume changes from baseline, Median +/− nMAD (15 mg/kg, DAY 42): −85 +/− 38 | tumor volume changes from baseline, Median +/− nMAD (15 mg/kg, DAY 46): −85 +/− 38 | tumor volume changes from baseline, Median +/− nMAD (15 mg/kg, DAY 49): −85 +/− 38 | tumor volume changes from baseline, Median +/− nMAD (15 mg/kg, DAY 53): −85 +/− 38 | tumor volume changes from baseline, Median +/− nMAD (15 mg/kg, DAY 56): −85 +/− 38 | #CR (24.2 mg/kg i.v./q4dx3): 1 | #PR (24.2 mg/kg i.v./q4dx3): 5 | #TFS (24.2 mg/kg i.v./q4dx3): 1 | Drug Deaths Total (24.2 mg/kg i.v./q4dx3): 0 | Weight Change at Nadir % (24.2 mg/kg i.v./q4dx3): −15% | Weight Change at Nadir Day (24.2 mg/kg i.v./q4dx3): 14 days | Tumor Volume Data (Day 21) Median (24.2 mg/kg i.v./q4dx3): 101.5 mm^3 | ΔT/ΔC % (24.2 mg/kg i.v./q4dx3): −6.9% | MTTE (24.2 mg/kg i.v./q4dx3): >60 days | T-C (24.2 mg/kg i.v./q4dx3): >35 days | tumor volume changes from baseline, Median +/− nMAD (24.2 mg/kg, DAY 4): 22 +/− 22 | tumor volume changes from baseline, Median +/− nMAD (24.2 mg/kg, DAY 7): 0 +/− 9.5 | tumor volume changes from baseline, Median +/− nMAD (24.2 mg/kg, DAY 11): −26.5 | tumor volume changes from baseline, Median +/− nMAD (24.2 mg/kg, DAY 14): −29.5 | tumor volume changes from baseline, Median +/− nMAD (24.2 mg/kg, DAY 18): −61.5 +/− 27 | tumor volume changes from baseline, Median +/− nMAD (24.2 mg/kg, DAY 21): −63 +/− 25.5 | tumor volume changes from baseline, Median +/− nMAD (24.2 mg/kg, DAY 25): −69.5 | tumor volume changes from baseline, Median +/− nMAD (24.2 mg/kg, DAY 28): −60 +/− 28.5 | tumor volume changes from baseline, Median +/− nMAD (24.2 mg/kg, DAY 32): −60 +/− 28.5 | tumor volume changes from baseline, Median +/− nMAD (24.2 mg/kg, DAY 35): −60 +/− 35 | tumor volume changes from baseline, Median +/− nMAD (24.2 mg/kg, DAY 39): −60 +/− 35 | tumor volume changes from baseline, Median +/− nMAD (24.2 mg/kg, DAY 42): −71 +/− 46.5 | tumor volume changes from baseline, Median +/− nMAD (24.2 mg/kg, DAY 46): −71 +/− 46.5 | tumor volume changes from baseline, Median +/− nMAD (24.2 mg/kg, DAY 49): −71 +/− 43 | tumor volume changes from baseline, Median +/− nMAD (24.2 mg/kg, DAY 53): −64.5 +/− 45.5 | tumor volume changes from baseline, Median +/− nMAD (24.2 mg/kg, DAY 56): −64.5 +/− 46.5 | antitumor activity compared with docetaxel (conclusion of example 4, dose equivalent basis): more efficacious than docetaxel at both mid doses
